The subject of the experiment is M17-SYNwt cells. The experiment can be described thus: α-synuclein cytotoxicity assay (LDH leakage from paraquat-treated α-synuclein over-expressing neuroblastoma cells). It is filed as cell-based, human. To be noted: paraquat 32 mM, 40 hours, LDH release; for EC50: Homo sapiens, Neuroblastoma cell, 10 point curves in duplicate; for %I: percent inhibition of synuclein cytotoxicity at most effective concentration of test compound, relative to untreated paraquat cells. The method in brief: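 M17 neuroblastoma cells over-expressing wild-type α-synuclein were challenged with paraquat, and cytotoxicity was read as LDH release. Protection was expressed as percent reduction of paraquat-induced LDH release relative to untreated paraquat cells and control cells. Actives were retested in 10-point duplicate dose responses.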
Background: LDH leaks from cells whose membrane has failed.

Converted amounts (≈) assume the structure as drawn.

From patent EP1981504B1, “THIADIAZOLE DERIVATIVES FOR THE TREATMENT OF NEURO DEGENERATIVE DISEASES” (NV reMYND, priority 2006, dated 2007) come the findings set out here.

For the compound `CCS(=O)(=O)N1CCN(c2nc(Cc3ccc(Cl)cc3)ns2)CC1` [Compound 84, 1-(ethylsulfonyl)-4-[3-(4-chlorobenzyl)-1,2,4-thiadiazol-5-yl]piperazine], the EC50 stood at 3.48 µg/mL (≈ 8.99 µM) and the “%I” value turned out to be 53%.
The corresponding values for `Cc1ccc(Cc2nsc(N3CCN(S(=O)(=O)C(C)C)CC3)n2)cc1` [Compound 85, 1-(isopropylsulfonyl)-4-[3-(4-methylbenzyl)-1,2,4-thiadiazol-5-yl]piperazine] are 3.65 µg/mL (≈ 9.59 µM) and 69%.
The corresponding values for `CC1CN(c2nc(Cc3ccc(Cl)cc3)ns2)CCN1C(=O)/C=C/c1ccccc1` (stereo not shown) [Compound 86, 1-[(2E)-3-phenylprop-2-enoyl]-4-[3-(4-chlorobenzyl)-1,2,4-thiadiazol-5-yl]-2-methylpiperazine] are 1.13 µg/mL (≈ 2.57 µM) and 81%.
The corresponding values for `CC1CN(c2nc(Cc3ccc(F)cc3)ns2)CCN1C(=O)/C=C/c1ccccc1` (stereo not shown) [Compound 87, 1-[(2E)-3-phenylprop-2-enoyl]-4-B103-2-methylpiperazine] are 2.49 µg/mL (≈ 5.89 µM) and 94%.
On to `O=C(/C=C/c1ccccc1)N1CCN(c2nc(Cc3ccc(Cl)cc3)ns2)CC1` [Compound 88, 1-[(2E)-3-phenylprop-2-enoyl]-4-[3-(4-chlorobenzyl)-1,2,4-thiadiazol-5-yl]piperazine], for which the “%I” value worked out at 72%.
In the case of `CC1CN(c2nc(Cc3ccc(F)cc3)ns2)CCN1C(=O)CCc1ccccc1` (stereo not shown) [Compound 89, 1-(3-phenylpropanoyl)-4-[3-(4-fluorobenzyl)-1,2,4-thiadiazol-5-yl]-2-methylpiperazine], the EC50 worked out at 0.6 µg/mL (≈ 1.41 µM) and the “%I” value was determined as 86%.
Turning to `O=C(CCc1ccccc1)N1CCN(c2nc(Cc3ccc(F)cc3)ns2)CC1` [Compound 90, 1-(3-phenylpropanoyl)-4-[3-(4-fluorobenzyl)-1,2,4-thiadiazol-5-yl]piperazine], the half-maximal effective concentration (EC50) was 1.41 µg/mL (≈ 3.43 µM) and the “%I” value came to 73%.
On the same counts, the results for `Cc1ccc(Cc2nsc(N3CCN(C/C=C/c4ccccc4)CC3)n2)cc1` [Compound 91, 1-[3-phenylprop-2-enyl]-4-[3-(4-methylbenzyl)-1,2,4-thiadiazol-5-yl]piperazine] are 0.71 µg/mL (≈ 1.82 µM) and 90%.
The corresponding values for `Clc1ccc(Cc2nsc(N3CCN(C/C=C/c4ccccc4)CC3)n2)cc1` [Compound 92, 1-[3-phenylprop-2-enyl]-4-[3-(4-chlorobenzyl)-1,2,4-thiadiazol-5-yl]piperazine] are 0.75 µg/mL (≈ 1.82 µM) and 69%.
The corresponding values for `Fc1ccc(Cc2nsc(N3CCN(C/C=C/c4ccccc4)CC3)n2)cc1` [Compound 93, 1-[3-phenylprop-2-enyl]-4-[3-(4-fluorobenzyl)-1,2,4-thiadiazol-5-yl]piperazine] are 1.99 µg/mL (≈ 5.04 µM) and 91%.
In the case of `CCCCCc1ccc(C(=O)NCCN2CCN(c3nc(Cc4ccc(F)cc4)ns3)CC2)cc1` [Compound 94, 4-pentyl-N-{2-[4-[3-(4-fluorobenzyl)-1,2,4-thiadiazol-5-yl]piperazin-1-yl]ethyl}benzamide], the EC50 is 0.35 µg/mL (≈ 0.706 µM) and the “%I” value is 90%.
On the same counts, the results for `CCCCc1ccc(C(=O)NCCN2CCN(c3nc(Cc4ccc(F)cc4)ns3)CC2)cc1` [Compound 95, 4-butyl-N-{2-[4-[3-(4-fluorobenzyl)-1,2,4-thiadiazol-5-yl]piperazin-1-yl]ethyl}benzamide] are 0.38 µg/mL (≈ 0.789 µM) and 78%.
On the same counts, the results for `CCCCCCc1ccc(C(=O)NCCN2CCN(c3nc(Cc4ccc(F)cc4)ns3)CC2)cc1` [Compound 96, 4-hexyl-N-{2-[4-[3-(4-fluorobenzyl)-1,2,4-thiadiazol-5-yl]piperazin-1-yl]ethyl}benzamide] are 0.8 µg/mL (≈ 1.57 µM) and 72%.
On the same counts, the results for `O=C(NCCN1CCN(c2nc(Cc3ccc(F)cc3)ns2)CC1)c1ccc(Cl)cc1` [Compound 97, 4-chloro-N-{2-[4-[3-(4-fluorobenzyl)-1,2,4-thiadiazol-5-yl]piperazin-1-yl]ethyl}benzamide] are 1.29 µg/mL (≈ 2.8 µM) and 68%.
`O=C(NCCN1CCN(c2nc(Cc3ccc(F)cc3)ns2)CC1)c1cc(Cl)cc(Cl)c1` [Compound 98, 3,5-dichloro-N-{2-[4-[3-(4-fluorobenzyl)-1,2,4-thiadiazol-5-yl]piperazin-1-yl]ethyl}benzamide]: the EC50 worked out at 1.42 µg/mL (≈ 2.87 µM) and the “%I” value was determined as 102%.
On the same counts, the results for `Cc1ccccc1C(=O)NCCN1CCN(c2nc(Cc3ccc(F)cc3)ns2)CC1` [Compound 99, 2-methyl-N-{2-[4-[3-(4-fluorobenzyl)-1,2,4-thiadiazol-5-yl]piperazin-1-yl]ethyl}benzamide] are 1.58 µg/mL (≈ 3.59 µM) and 97%.
The corresponding values for `O=C(NCCN1CCN(c2nc(Cc3ccc(Cl)cc3)ns2)CC1)c1cccc(F)c1` [Compound 100, 3-fluoro-N-(2-[4-[3-(4-chlorobenzyl)-1,2,4-thiadiazof-5-yl]piperazin-1-yl]ethyl)benzamide] are 1.79 µg/mL (≈ 3.89 µM) and 75%.
On the same counts, the results for `Cc1ccc(C(=O)NCCN2CCN(c3nc(Cc4ccc(F)cc4)ns3)CC2)cc1` [Compound 101, 4-methyl-N-{2-[4-[3-(4-fluorobenzyl)-1,2,4-thiadiazol-5-yl]piperazin-1-yl]ethyl}benzamide] are 1.94 µg/mL (≈ 4.41 µM) and 68%.
Consider `O=C(NCCN1CCN(c2nc(Cc3ccc(F)cc3)ns2)CC1)c1ccc(F)cc1` [Compound 102, 4-fluoro-N-{2-[4-[3-(4-fluorobenzyl)-1,2,4-thiadiazol-5-yl]piperazin-1-yl]ethyl}benzamide], for which the EC50 came to 1.99 µg/mL (≈ 4.49 µM) and the “%I” value is 80%.
The corresponding values for `CCc1ccc(C(=O)NCCN2CCN(c3nc(Cc4ccc(F)cc4)ns3)CC2)cc1` [Compound 103, 4-ethyl-N-{2-[4-[3-(4-fluorobenzyl)-1,2,4-thiadiazol-5-yl]piperazin-1-yl]ethyl}benzamide] are 2.32 µg/mL (≈ 5.11 µM) and 139%.
On the same counts, the results for `O=C(NCCN1CCN(c2nc(Cc3ccc(F)cc3)ns2)CC1)c1ccccc1` [Compound 104, N-{2-[4-[3-(4-fluorobenzyl)-1,2,4-thiadiazol-5-yl]piperazin-1-yl]ethyl}benzamide] are 3.82 µg/mL (≈ 8.98 µM) and 65%.
In the case of `O=C(NCCN1CCN(c2nc(Cc3ccc(F)cc3)ns2)CC1)c1cccc(F)c1` [Compound 105, 3-fluoro-N-{2-[4-[3-(4-fluorobenzyl)-1,2,4-thiadiazol-5-yl]piperazin-1-yl]ethyl}benzamide], the “%I” value is 115%.
As to `O=C(NCCN1CCN(c2nc(Cc3ccccc3)ns2)CC1)c1cccc(F)c1` [Compound 106, 3-fluoro-N-{2-[4-[3-benzyl-1,2,4-thiadiazol-5-yl]piperazin-1-yl]ethyl}benzamide], the “%I” value came out at 49%.
With `O=C(Cc1ccc(F)cc1)NCCN1CCN(c2nc(Cc3ccc(F)cc3)ns2)CC1` [Compound 107, 2-(4-fluorophenyl)-N-{2-[4-[3-(4-fluorobenzyl)-1,2,4-thiadiazol-5-yl]piperazin-1-yl]ethyl}acetamide], the midpoint of the response, the EC50, lay at 0.26 µg/mL (≈ 0.568 µM) and the “%I” value is given as 80%.
Regarding `O=C(Cc1ccccc1)NCCN1CCN(c2nc(Cc3ccc(F)cc3)ns2)CC1` [Compound 108, 2-phenyl-N-{2-[4-[3-(4-fluorobenzyl)-1,2,4-thiadiazol-5-yl]piperazin-1-yl]ethyl}acetamide], the EC50 amounted to 2.06 µg/mL (≈ 4.69 µM) and the “%I” value was found to be 63%.
The corresponding values for `Cc1ccc(Cc2nsc(N3CCN(CCNC(=O)Cc4ccc(F)cc4)CC3)n2)cc1` [Compound 109, 2-(4-fluorophenyl)-N-{2-[4-[3-(4-methylbenzyl)-1,2,4-thiadiazol-5-yl]piperazin-1-yl]ethyl}acetamide] are 3.52 µg/mL (≈ 7.76 µM) and 93%.
`O=C(NCCN1CCN(c2nc(Cc3ccc(F)cc3)ns2)CC1)NCc1ccccc1` [Compound 110, N-benzyl-N'-{2-[4-[3-(4-fluorobenzyl)-1,2,4-thiadiazol-5-yl]piperazin-1-yl]ethyl}urea]: the “%I” value is on record as 77%.
`Fc1ccc(Cc2nsc(N3CCN(Cc4ccccc4)CC3)n2)cc1` [Compound 113, 1-benzyl-4-[3-(4-fluorobenzyl)-1,2,4-thiadiazol-5-yl]piperazine]: the midpoint of the response, the EC50, lay at 1.54 µg/mL (≈ 4.18 µM) and the “%I” value is on record as 65%.
In the case of `Fc1ccc(Cc2nsc(N3CCN(Cc4ccc5c(c4)OCO5)CC3)n2)cc1` [Compound 114, 1-(1,3-benzodioxol-5-ylmethyl)-4-[3-(4-fluorobenzyl)-1,2,4-thiadiazol-5-yl]piperazine], the “%I” value was 86%.
Consider `COc1cccc(Cc2nsc(N3CCN(C(=O)c4ccccc4F)C(C)C3)n2)c1` (stereo not shown) [Compound 115, 1-(2-fluorobenzoyl)-4-[3-(3-methoxybenzyl)-1,2,4-thiadiazol-5-yl]-2-methylpiperazine], for which a half-maximal effect (EC50) was put at 0.0361 µg/mL (≈ 0.0846 µM) and the “%I” value stood at 75%.
On the same counts, the results for `CCc1ccc(C(=O)N2CCN(c3nc(Cc4ccc(F)cc4)ns3)CC2C)cc1` (stereo not shown) [Compound 116, 1-(4-ethylbenzoyl)-4-[3-(4-fluorobenzyl)-1,2,4-thiadiazol-5-yl]-2-methylpiperazine] are 0.0522 µg/mL (≈ 0.123 µM) and 71%.
The corresponding values for `CCCCc1ccc(C(=O)N2CCN(c3nc(Cc4ccc(C)cc4)ns3)CC2C)cc1` (stereo not shown) [Compound 117, 1-(4-butylbenzoyl)-4-[3-(4-methylbenzyl)-1,2,4-thiadiazol-5-yl]-2-methylpiperazine] are 0.0841 µg/mL (≈ 0.187 µM) and 82%.
On the same counts, the results for `COc1ccc(C(=O)N2CCN(c3nc(Cc4ccc(F)cc4)ns3)CC2C)cc1` (stereo not shown) [Compound 118, 1-(4-methoxybenzoyl)-4-[3-(4-fluorobenzyl)-1,2,4-thiadiazol-5-yl]-2-methylpiperazine] are 0.0911 µg/mL (≈ 0.214 µM) and 64%.

Broadly, the EC50 is the concentration at which the effect is half-maximal. Read a high EC50 as weaker potency.
